{
  "source": "paper PMC3867817",
  "about": "(Molecular cell, 2013)",
  "biological_target": "RagB-RagC heterodimer (RagB monitored) (Homo sapiens, UniProt Q5VZM2)",
  "sequence (Q5VZM2 whole entry)": "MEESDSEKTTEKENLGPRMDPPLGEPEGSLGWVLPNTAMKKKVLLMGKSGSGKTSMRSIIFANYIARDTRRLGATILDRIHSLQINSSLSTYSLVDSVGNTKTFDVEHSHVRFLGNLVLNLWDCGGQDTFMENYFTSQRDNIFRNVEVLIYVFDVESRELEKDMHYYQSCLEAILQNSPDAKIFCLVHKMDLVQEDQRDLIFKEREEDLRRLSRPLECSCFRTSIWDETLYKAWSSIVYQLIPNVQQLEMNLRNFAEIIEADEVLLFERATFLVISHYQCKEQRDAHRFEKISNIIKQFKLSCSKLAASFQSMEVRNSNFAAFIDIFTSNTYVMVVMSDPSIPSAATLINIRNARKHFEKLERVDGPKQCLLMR",
  "sequence (Q9HB90 2-399 D181N partner)": "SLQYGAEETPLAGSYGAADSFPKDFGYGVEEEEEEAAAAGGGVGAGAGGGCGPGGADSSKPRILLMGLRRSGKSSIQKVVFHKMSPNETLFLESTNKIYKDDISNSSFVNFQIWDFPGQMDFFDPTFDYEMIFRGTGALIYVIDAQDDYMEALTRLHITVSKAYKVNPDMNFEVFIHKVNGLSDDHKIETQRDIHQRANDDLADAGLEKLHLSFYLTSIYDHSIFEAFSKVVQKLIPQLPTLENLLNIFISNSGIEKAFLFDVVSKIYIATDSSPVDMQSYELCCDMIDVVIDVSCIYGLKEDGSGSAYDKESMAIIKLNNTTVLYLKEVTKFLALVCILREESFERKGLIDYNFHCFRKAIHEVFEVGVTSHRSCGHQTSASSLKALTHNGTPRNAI",
  "test": "GDP dissociation assay",
  "assay_type": "binding",
  "conditions": "GDP on wild-type RagB with Rag^X partner; not altered by FLCN-FNIP",
  "data": [
    {"compound": "Nc1nc2c(ncn2[C@@H]2O[C@H](COP(=O)(O)OP(=O)(O)O)[C@@H](O)[C@H]2O)c(=O)[nH]1", "note": "[GDP]", "values": [
      {"measurement": "GDP dissociation assay", "result": "did not stimulate or inhibit the dissociation of GDP from RagB or RagC"}
    ]}
  ]
}
